Results published in patent EP4620955A1, “MC4R ANTAGONIST COMPOUND, PHARMACEUTICAL COMPOSITION AND PHARMACEUTICAL USE THEREOF” (Changchun Genescience Pharmaceutical Co., Ltd., priority 2022, dated 2024).

Legend:
MC4R = target: T1, MC4R (Homo sapiens, UniProt P32245); experiment: Assay of MC4R antagonist activity in cells in vitro (cAMP assay, Melanotan I stimulation); type: cell-based; conditions: flipin-293-MC4 cell line, Melanotan I as agonist
T1 construct: expressed in transfected cells; host or cells: flipin-293-MC4 (Flp-In 293 host, hygromycin selection)
Experimental: Test Example 1: Assay of MC4R antagonist activity in cells in vitro
a. Experimental consumables:
b. Experimental steps • ✔ Cell line: flipin-293-MC4 • ✔ Cell culture medium: DMEM, 10% fetal bovine serum, 1 × PS, 200 µg/mL hygromycin • ✔ Experimental buffer: HBSS, 20 mM HEPES, 0.1% BSA, 500 µM IBMX • ✔ Positive compound: ML00253764 c. Antagonist detection • 1. Digested cells were suspended in the experimental buffer, and then inoculated into the 384-well cell culture plate. • 2. The to-be-detected compound was added to the cell plate, and incubated at 37°C for 10 min. • 3. Melanotan I was added to the cell plate, and incubated at 37°C for 30 min. • 4. Two detection reagents EU cAMP tracer and ulight anti camp were thawed and diluted with a lysis solution in the kit. • 5. The diluted detection reagents were added to the cell plate and incubated at room temperature for 1 h. • 6. Reading was carried out by Envision. (Excitation light: 340 nm, emission light: 615 nm and 665 nm) d. Data analysis • 1. %Inhibition calculation: %Inhibition = (Signalcmpd−SignalAve_VC)/(SignalAve_PC−SignalAve_VC) × 100. [formula] • Signalcmpd: compound signal value; • SignalAve_VC: negative control signal value; • SignalAve_PC: positive control signal value; • %inhibition: inhibition percentage. • 2. Calculation of IC50 of the compound using the nonlinear fitting equation in GraphPad: Y = Bottom + (Top−Bottom)/(1+10^(∧)((LogIC50−X)×HillSlope)) [formula] X: logarithmic value of the concentration of the compound; Y: inhibition percentage

[1] = Pharmacokinetic study on the tested compound in SD male rats; type: in vivo; conditions: IV 1 mpk/PO 2 mpk; for AUC / Cmax / clearance / half-life: Sprague-Dawley (SD), rat, plasma
Experimental: On the day of administration, the tested compound was prepared with 5% DMSO + 5% Solutol + 90% Saline as a solvent into a solution for administration for use.
The solution for administration was administered to an intravenous injection IV group at a dose of 1 mg/kg in a concentration of 0.2 mg/mL. The solution for administration was administered to an oral gavage PO group at a dose of 2 mg/kg in a concentration of 0.2 mg/mL. The animals in the PO group were required to fast overnight in advance, drink water freely, and be fed 4 hours after administration. The IV group was not required to fast.
The animals were weighed before administration. On the day of administration, the solution was IV/PO-administered once in an administration amount calculated based on the weight. In the IV group, blood was collected from veins at 0.083 h, 0.25 h, 0.5 h, 1.0 h, 2.0 h, 4.0 h, 8.0 h, and 24 h after administration. In the PO group, blood was collected from veins at 0.25 h, 0.5 h, 1.0 h, 2.0 h, 4.0 h, 6.0 h, 8.0 h, and 24 h after administration. The amount of blood collected was about 0.20 mL. K2-EDTA was used in blood collection tubes as an anticoagulant. The collected blood sample was centrifuged (centrifugation conditions: 6800 g, 6 min, 2°C to 8°C) within 1 h to obtain plasma. The to-be-tested sample was stored in a refrigerator at -80°C before analysis.
The concentration of the tested compound in the plasma of the SD male rats was detected by the validated LC-MS/MS method.

T1 sequence (P32245 whole entry): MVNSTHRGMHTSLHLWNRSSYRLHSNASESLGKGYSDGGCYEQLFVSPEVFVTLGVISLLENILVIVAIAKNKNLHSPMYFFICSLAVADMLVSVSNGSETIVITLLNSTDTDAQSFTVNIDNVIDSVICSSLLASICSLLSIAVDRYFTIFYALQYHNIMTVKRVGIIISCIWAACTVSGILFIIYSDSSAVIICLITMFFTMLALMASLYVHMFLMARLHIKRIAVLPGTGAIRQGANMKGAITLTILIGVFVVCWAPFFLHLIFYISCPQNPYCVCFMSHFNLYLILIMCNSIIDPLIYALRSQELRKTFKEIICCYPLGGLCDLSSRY

| Structure (SMILES) | IC50 (MC4R) [nM] | F [1] [%] | AUC [1] [ng·h/mL] | Cmax [1] [ng/mL] | clearance [1] [mL/min/kg] | half-life [1] [min] |
| --- | --- | --- | --- | --- | --- | --- |
| COc1cc([C@@H](C)C(=O)N2CC[C@H](Nc3ccc(-c4ncccn4)c(C)n3)C2)c(F)cn1 [Compound 001-1, (R)-2-(5-fluoro-2-methoxypyridine-4-yl)-1-((S)-3-((6-methyl-5-(pyrimidine-2-yl)pyridine-2-yl)amino)pyrrolidine-1-yl)propan-1-one] | 3.95 | 86.8 | 442 | 338 | 65.3 | 42.6 |
| COc1cc([C@@H](C)C(=O)N2C[C@H](C)[C@H](Nc3ccc(-c4ncccn4)c(C)n3)C2)c(F)cn1 [Compound 051-1, (R)-2-(5-fluoro-2-methoxypyridine-4-yl)-1-((3 S,4S)-3-methyl-4-(6-methyl-5-(pyrimidine-2-yl)pyridine-2-yl-amino)pyrrolidine-1-yl)propane-1-one] | 2.96 | 52.7 | 317 | 329 | 55.2 | 15 |
| COc1cc([C@@H](C)C(=O)N2C[C@@H](Nc3ccc(-c4ncccn4)c(C)n3)C3(CC3)C2)c(F)cn1 [Compound 056-1, (2R)-2-(5-fluoro-2-methoxypyridine-4-yl)-1-[(7S)-7-{[6-methyl-5-(pyrimidine-2-yl)pyridine-2-yl]amino}-5-azaspiro[2.4]heptane-5-yl]propan-1-one] | 4.23 | 61.5 | 566 | 380 | 35.8 | 53.4 |
| COc1cc([C@@H](C)C(=O)N2C[C@H](C)[C@H](Nc3ccc(-c4ncccn4)c(C)n3)C2)c(Cl)cn1 [Compound 112, (R)-2-(5-chloro-2-methoxypyridine-4-yl)-1-((3 S,4S)-3-methyl-4-(6-methyl-5-(pyrimidine-2-yl)pyridine-2-yl-amino)pyrrolidine-1-yl)propane-1-one] | 2.3 | 33.8 | 179 | 157 | 62.5 | 15 |
| COc1cc([C@@H](C)C(=O)N2C[C@@H](Nc3ccc(-c4cn(C)nn4)c(C)n3)C3(CC3)C2)c(Cl)cn1 [Compound 165, (R)-2-(5-chloro-2-methoxypyridine-4-yl)-1-((S)-7-((6-methyl-5-(1-methyl-1H-1,2,3-triazol-4-yl)pyridine-2-yl)amino)-5-azaspiro[2.4]hept-5-yl)propan-1-one] | 2.86 | 56.0 | 858 | 577 | 22.3 | 39 |
| COc1cc([C@@H](C)C(=O)N2C[C@@H](Nc3ccc(-c4cn(C)c(OC(F)F)n4)c(C)n3)C3(CC3)C2)c(F)cn1 [Compound 185, (R)-1-((S)-7-((5-(2-(difluoromethoxy)-1-methyl-1H-imidazol-4-yl)-6-methylpyridine-2-yl)amino)-5-azaspiro[2.4]hept-5-yl)-2-(5-fluoro-2-methoxypyridine-4-yl)propan-1-one] | 0.54 | 22.9 | 170 | 129 | 45.4 | 40.8 |
